A word on the ED50: it is the dose that gives a 50% effect, or the effect in half of the subjects.

The results in this text go back to patent US5128343A, “Derivatives of pyrimidinyl-piperazinyl-alkyl azoles with anxiolytic and/or tranquilizing activity” (Laboratorios del Dr. Esteve, priority 1989, dated 1992).

Structures can show the parent of a compound that is named as a salt. Where two headings read alike, the source gives them in different places.

This assay relates to male Wistar rats. The assay is described as follows: conditioned avoidance response test (anxiolytic and tranquilizing action). Format: in vivo. To be noted: suppression of conditioned avoidance response, oral administration 45 minutes before study; for Activity %: dose not given. Here is the method:
In this test, male Wistar rats of 200 grams weight are used, trained to jump over a barrier in an avoidance and exit cage (shuttle box) (Letica, reference L1 910 and L1 2700) in the 30 seconds following their introduction into the cage.
The products with anxiolytic or tranquilizing activity suppress the conditioned avoidance response.
Training: first day: 11 tests, at intervals of 3 minutes. Electro-shock on the paws, at 30 seconds (5 mA, 0.1 s, 10 s).
Second and third days: 2 tests per day, solely with selected rats [sum of the points of the first day (excepting the first test)>14].
Day of test: groups formed of selected rats. Oral administration of the product or of the vehicle 45 minutes before starting the study.

Where [1] appears, read: Rattus norvegicus, po, 0.75 h, read-out: ED50.

As to `c1cnc(N2CCN(CCCCn3cccn3)CC2)nc1` [Example 1, 1H-pyrazole-1-(4-(4-(2-pyrimidinyl)-1-piperazinyl)-butyl)], the Activity % is given as 98%. Further, the ED50 under setting [1] was found to be 26.2 mg/kg. In the same order, the values of `CCCCS(=O)(=O)Nc1cnn(CCCCN2CCN(c3ncccn3)CC2)c1` [Example 39] are 57% and 73 mg/kg.

For the compound `Clc1cnn(CCCCN2CCN(c3ncccn3)CC2)c1` [Example 49], the Activity % was found to be 100%. This compound also showed an ED50 (45 min) of 14.5 mg/kg. As for `COc1ccc(-c2cnn(CCCCN3CCN(c4ncccn4)CC3)c2)cc1` [Example 32], the Activity % is 60%. In addition, under setting [1], the ED50 is 22.5 mg/kg. The compound `CCS(=O)(=O)Nc1cnn(CCCCN2CCN(c3ncccn3)CC2)c1` [Example 41] had an Activity % of 77%. Also, the ED50 under setting [1] was determined as 29.3 mg/kg.

On to `c1cnc(N2CCN(CCCCn3cc4c(n3)CCCC4)CC2)nc1` [Example 27], for which the Activity % is 98%. Moreover, under setting [1], the ED50 is 18.9 mg/kg. Compound `O=S(=O)(Nc1cnn(CCCCN2CCN(c3ncccn3)CC2)c1)c1ccccc1` [Example 37] came in with an Activity % of 46%. Further, the ED50 under setting [1] turned out to be 85 mg/kg. For the compound `Cc1nn(CCCCN2CCN(c3ncccn3)CC2)c(C)c1Br` [Example 6], the Activity % is on record as 51%. Besides, the ED50 under setting [1] was found to be 80 mg/kg. In the same order, the values of `CCCS(=O)(=O)Nc1cnn(CCCCN2CCN(c3ncccn3)CC2)c1` [Example 40] are 57% and 73 mg/kg. On to `Cc1ccnn1CCCCN1CCN(c2ncccn2)CC1` [Example 22], for which the Activity % is reported as 47%. In the case of `CN(C)S(=O)(=O)c1cnn(CCCCN2CCN(c3ncccn3)CC2)c1` [Example 43], the Activity % is listed as 63%. Moreover, the ED50 under setting [1] turned out to be 72 mg/kg. In the same order, the values of `Clc1cnn(CCCCN2CCN(c3ncc(Br)cn3)CC2)c1` [Example 21] are 48% and 51.7 mg/kg. On to `c1ccc(-c2cnn(CCCCN3CCN(c4ncccn4)CC3)c2)cc1` [Example 35], for which the Activity % is 100%. In addition, the ED50 under setting [1] was 27.4 mg/kg. In the same order, the values of `c1cnc(N2CCN(CCCCn3ncc4ccccc43)CC2)nc1` [Example 5] are 45% and 80 mg/kg. Regarding `Cc1c(-c2ccccc2)cnn1CCCCN1CCN(c2ncccn2)CC1` [Example 28], the Activity % is recorded as 75%. In addition, the ED50 under setting [1] was 32.2 mg/kg. As for `Clc1cnn(CCCCN2CCN(c3ncccn3)CC2)c1` [Example 50, 1H-pyrazole-4-chloro-1-(4-(4-(2-pyrimidinyl)-1-piperazinyl)-butyldihydrochloride], the 50% effective dose (ED50) (dihydrochloride, 45 min) is 4.9 mg/kg. In addition, the Activity % (dihydrochloride) is recorded as 99%. As for `N#Cc1cnn(CCCCN2CCN(c3ncccn3)CC2)c1` [Example 12], the Activity % amounted to 100%. The compound `Fc1cnn(CCCCN2CCN(c3ncccn3)CC2)c1` [Example 13] came in with an Activity % of 85%. `c1cnc(N2CCN(CCCCn3ccnc3)CC2)nc1` [Example 45] came in with an Activity % of 35%. For the same compound, the median effective dose (ED50) under setting [1] was 93 mg/kg. Compound `O=S(=O)(O)c1cnn(CCCCN2CCN(c3ncccn3)CC2)c1` [Example 44] showed an Activity % of 15%. `c1cnc(N2CCN(CCCCn3cc(-n4cccc4)cn3)CC2)nc1` [Example 34] displayed an Activity % of 100%. The ED50 under setting [1] is 5 mg/kg. `Cc1nn(CCCCN2CCN(c3ncccn3)CC2)c(C)c1[N+](=O)[O-]` [Example 3] yielded an Activity % of 61%. The ED50 under setting [1] worked out at 58.3 mg/kg. In the same order, the values of `Cc1ccc(S(=O)(=O)Nc2cnn(CCCCN3CCN(c4ncccn4)CC3)c2)cc1` [Example 38] are 37% and 102 mg/kg. In the same order, the values of `Cc1nn(CCCCN2CCN(c3ncccn3)CC2)c(C)c1S(=O)(=O)N(C)C` [Example 42] are 45% and 82 mg/kg. In the same order, the values of `Cc1cc(C)n(CCCCN2CCN(c3ncccn3)CC2)n1` [Example 2] are 50% and 80 mg/kg. `O=[N+]([O-])c1cnn(CCCCN2CCN(c3ncccn3)CC2)c1` [Example 7, 1H-pyrazole-4-nitro-1-(4-(4-(2-pyrimidinyl)-1-piperazinyl)-butyl)] showed an Activity % of 98%. In addition, the ED50 under setting [1] stood at 6.2 mg/kg.

Turning to `Clc1ccc(-c2cnn(CCCCN3CCN(c4ncccn4)CC3)c2)cc1` [Example 33], the Activity % is listed as 90%. Moreover, under setting [1], the ED50 is 15.7 mg/kg.

`Brc1cnc(N2CCN(CCCCn3cc(Br)cn3)CC2)nc1` [Example 20] had an Activity % of 59%. The ED50 under setting [1] amounted to 76.8 mg/kg. `Cc1nn(CCCCN2CCN(c3ncccn3)CC2)cc1-c1ccccc1` [Example 29] yielded an Activity % of 78%. For the same compound, under setting [1], the ED50 is 31.9 mg/kg.

Regarding `CC(=O)Nc1cnn(CCCCN2CCN(c3ncccn3)CC2)c1` [Example 18], the Activity % amounted to 89%. Moreover, the ED50 under setting [1] was determined as 28.8 mg/kg.

Compound `Cc1c(Br)cnn1CCCCN1CCN(c2ncccn2)CC1` [Example 24, 1H-pyrazole-4-bromo-5-methyl-1-(4-(4-(2-pyrimidinyl)-1-piperazinyl)-butyl)] yielded an Activity % of 53%. In addition, the ED50 under setting [1] turned out to be 60.6 mg/kg. In the same order, the values of `Cc1cnn(CCCCN2CCN(c3ncccn3)CC2)c1` [Example 4] are 98% and under 20 mg/kg. For `Clc1ncn(CCCCN2CCN(c3ncccn3)CC2)c1Cl` [Example 46], the Activity % was 99%.

For `Clc1cnn(CCCCN2CCN(c3ncccn3)CC2)c1` [Example 8, 1H-pyrazole-4-chloro-1-(4-(4-(2-pyrimidinyl)-1-piperazinyl)-butyl)], the Activity % is listed as 95%. Further, for the setting “45 min”, the ED50 stood at 17.9 mg/kg.

`c1ccc(-c2cc(-c3ccccc3)n(CCCCN3CCN(c4ncccn4)CC3)n2)cc1` [Example 36] yielded an Activity % of 31%. Besides, the ED50 under setting [1] was 122 mg/kg. In the same order, the values of `O=C(Nc1cnn(CCCCN2CCN(c3ncccn3)CC2)c1)c1ccccc1` [Example 17] are 62% and 65.9 mg/kg. In the same order, the values of `CCC(C)Nc1cnn(CCCCN2CCN(c3ncccn3)CC2)c1` (stereo not shown) [Example 19] are 80% and 29.7 mg/kg.

`Nc1cnn(CCCCN2CCN(c3ncccn3)CC2)c1` [Example 15, 1H-pyrazole-4-amino-1-(4-(4-(2-pyrimidinyl)-1-piperazinyl)-butyl)]: the Activity % is on record as 79%. Further, the ED50 under setting [1] was 27.7 mg/kg. In the same order, the values of `O=C1CC2(CCCC2)CC(=O)N1CCCCN1CCN(c2ncccn2)CC1` [Buspirone, reference compound] are 99% and 17.2 mg/kg. In the same order, the values of `Cc1cn(CCCCN2CCN(c3ncccn3)CC2)cn1` [Example 47] are 50% and 80 mg/kg. In the same order, the values of `Cc1nn(CCCCN2CCN(c3ncccn3)CC2)cc1Br` [Example 25] are 59% and 58.3 mg/kg.

On to `c1cnc(N2CCN(CCCCn3ncc4c3CCCC4)CC2)nc1` [Example 26], for which the Activity % came out at 97%. Under setting [1], the median effective dose (ED50) is 19.5 mg/kg. In the case of `Cc1cc(-c2ccccc2)n(CCCCN2CCN(c3ncccn3)CC2)n1` [Example 10], the Activity % was 24%.

Consider `Cc1cncn1CCCCN1CCN(c2ncccn2)CC1` [Example 48], for which the Activity % worked out at 52%. The ED50 under setting [1] came out at 75 mg/kg. As for `CCOC(=O)c1cnn(CCCCN2CCN(c3ncccn3)CC2)c1` [Example 9], the Activity % amounted to 14%.

`CS(=O)(=O)Nc1cnn(CCCCN2CCN(c3ncccn3)CC2)c1` [Example 16, 1H-pyrazole-4-methylsulfonamido-1-(4-(4-(2-pyrimidinyl)-1-piperazinyl)-butyl)] registered an Activity % of 64%. In addition, under setting [1], the ED50 is 40 mg/kg. In the same order, the values of `Brc1cnn(CCCCN2CCN(c3ncccn3)CC2)c1` [Example 11] are 95% and 28.9 mg/kg. In the same order, the values of `O=C1c2ccccc2S(=O)(=O)N1CCCCN1CCN(c2ncccn2)CC1` [Ipsapirone, reference compound] are 98% and 26.1 mg/kg. In the same order, the values of `Fc1cn(CCCCN2CCN(c3ncccn3)CC2)nc1Cl` [Example 30] are 85% and 53.9 mg/kg.
